Entries after “also recorded” stand apart in the source; their conditions may differ.
What was measured:
[1] = Animal models of ischemia-reperfusion injury, neurodegenerative diseases and metabolic syndrome; assay type: in vivo; settings: neurodegenerative diseases, metabolic syndrome
[2] = Antioxidant ability: neutralizing reactive species, lipid peroxidation; assay type: biochemical
[3] = Fluorescence spectroscopy of peptide interaction with cardiolipin; assay type: binding; settings: peptide 1 μM, CL 5-50 μg/ml
Source text: The peptides Dmt-D-Arg-(atn)Dap-Lys-NH2 (SS-19) and Dmt-D-Arg-Phe-Lys-Ald-NH2 (SS-37)cationic peptides carry net positive charge at neutral pH. They are expected to associate with anionic phospholipid cardiolipin based on electrostatic interaction. The interaction of small peptides with lipid membranes can been studied using fluorescence spectroscopy (Surewicz and Epand, 1984). […] Polarity-sensitive fluorescent probes were incorporated into the peptides and fluorescence spectroscopy was used to determine if SS-19, SS-37 and SS-36 interact with CL.
The peptide Dmt-D-Arg-Phe-(atn)Dap-NH2 (SS-19) contains anthraniloyl incorporated into diaminopropionic acid. Anthraniloyl derivatives fluoresce in the 410-420 nm range when excited at 320-330 nm (Hiratsuka T, 1983). The quantum yield of anthraniloyl derivatives is strongly dependent on the local environment, and can increase 5-fold going from water to 80% ethanol, together with a blue shift in the emission maxima (λ max) of <10 nm (Hiratsuka T, 1983). Fluorescence emission spectrum of SS-19 (1 μM) alone, and in the presence of increasing concentrations of CL (5 to 50 μg/ml), was monitored following excitation at 320 nm using Hitachi F-4500 fluorescence spectrophotometer.
The peptide Dmt-D-Arg-Phe-Lys-Ald-NH2 (SS-37) contains an additional amino acid, aladan (Ald), which has been reported to be particularly sensitive to the polarity of its environment and it has been used to probe the electrostatic character of proteins (Cohen et al., 2002). When excited at 350 nm, λmax shifts from 542 nm in water to 409 nm in heptane, accompanied by a significant increase in quantal yield (Cohen et al., 2001). Fluorescence emission spectrum of SS-37 (1 μM) alone, and in the presence of increasing concentrations of CL, was monitored following excitation at 350 nm. Addition of CL (5 to 50 μg/ml) led to a 3-fold increase in quantal yield of SS-37 as well as a clear blue shift in λmax, from 525 nm without CL to 500 nm with 50 μg/ml CL (FIG. 21B).
The peptide Dmt-D-Arg-Ald-Lys-NH2 (SS-36) contains Ald in place Phe^3. Fluorescence emission spectrum of SS-36 (1 μM) alone, and in the presence of increasing concentrations of CL, was monitored following excitation at 350 nm. SS-36 was the most sensitive to the addition of CL, with dramatic increase in quantal yield and blue shift observed with much lower added amounts of CL (1.25 to 5 μg/ml). The λmax shifted from 525 nm without CL to 500 nm with as little as 1.25 μg/ml CL, and quantal yield increased by more than 100-fold with the addition of 5 μg/ml of CL (FIG. 21C).

cytochrome c-CL complex [4] = target: T1, cytochrome c-CL complex (Homo sapiens, UniProt P99999); assay: Fluorescence spectroscopy of peptide with cytochrome c in the presence of CL; assay type: binding; settings: peptide 10 μM, CL 50 μg/ml
Method: Fluorescence emission of SS-19 (10 μM) was monitored in real time (Ex/Em=320 nm/420 nm) using Hitachi F-4500 fluorescence spectrophotometer. […] CL may potentiate the interaction between SS-19 and cytochrome c by serving as an anionic platform for the two cationic molecules.
The quenching by cytochrome c was not displaced by sequential additions of bovine serum albumin (500 μg/ml) (FIG. 23C, A+arrows).
SS-36 also contains the polarity-sensitive fluorescent amino acid aladan.

cytochrome c = assay: Fluorescence quenching of peptide by cytochrome c; assay type: binding
Method: (§1) Maximal fluorescence emission of SS-19 was monitored at 420 nm following excitation at 320 nm using Hitachi F-4500 fluorescence spectrophotometer.
(§2) The quenching by cytochrome c was not displaced by sequential additions of bovine serum albumin (FIG. 22C, A+arrows) (500 μg/ml).
Fluorescence emission of SS-19 (10 μM) was monitored in real time (Ex/Em=320 nm/420 nm) using Hitachi F-4500 fluorescence spectrophotometer.

[5] = test system: isolated rat renal kidney mitochondria; assay: Fluorescence quenching of peptide by mitochondria or mitoplasts; assay type: binding
Method: as §1, §2

cytochrome c-CL complex [6] = target: T1, cytochrome c-CL complex; assay: Cytochrome c/CL peroxidase activity (amplex red); assay type: biochemical; settings: figure legend FIG. 29A-C; comparison at a fixed concentration of 10 μM (FIG. 29C)
Source text: The six coordination of the heme in cytochrome c prevents direct interaction of H2O2 with the catalytic metal site, and native cytochrome c in solution is a poor peroxidase. Upon interaction with CL, cytochrome c undergoes a structural change with rupture of the Fe-Met80 coordination. […] The mechanism of action of cytochrome c peroxidase is similar to that of other peroxidases, such as horse radish peroxidase (HRP). Thus it is possible to use the amplex red-HRP reaction to investigate cytochrome c peroxidase activity. In the presence of peroxidase, amplex red (AR) reacts with H2O2 to form the red-fluorescent oxidation product, resorufin (Ex/Em=571/585).
Cytochrome c (2 μM) was mixed with CL (25 μg/ml) and 10 μM H2O2 in 20 mM HEPES, pH 7.4. Amplex red (50 μM) was then added and fluorescence emission monitored in real time using Hitachi F4500 fluorescence spectrophotometer. Addition of amplex red elicited rapid increase in fluorescence signal due to resorufin formation, providing direct evidence for peroxidase activity of cytochrome c/CL complex (FIG. 29A).

[7] = target: heme environment of cytochrome c (with CL) (Homo sapiens, UniProt P99999); assay: Soret CD spectrum of cyt C in the presence of CL; assay type: binding; settings: cyt C 10 μM; CL 30 μg/ml; peptide 10 μM; 20 mM HEPES pH 7.5, 25° C.; FIG. 24
Method: Circular dichroism (CD) was carried out to examine the effects of the peptides on protecting the heme environment of cyt C from the acyl chain of CL. For heme proteins, the Soret CD spectrum is strictly correlated with the heme pocket conformation. In particular, the negative 416-420 nm Cotton effect is considered diagnostic of Fe(III)-Met80 coordination in native cyt C (Santucci and Ascoli, 1997). […] CD spectra were obtained using AVIV CD Spectrometer Model 410.
Changes in the Soret CD spectrum of cyt C (10 μM) were recorded in the absence (dotted line) and presence (dashed line) of 30 μg/ml CL, plus addition of different peptides (10 μM) (solid line) (FIG. 24). CD measurements were carried out using 20 mM HEPES, pH 7.5, at 25° C. and expressed as molar ellipticity (θ) (m Deg).

T1 sequence (P99999 2-105 limits assumed, species assumed, one chain of several): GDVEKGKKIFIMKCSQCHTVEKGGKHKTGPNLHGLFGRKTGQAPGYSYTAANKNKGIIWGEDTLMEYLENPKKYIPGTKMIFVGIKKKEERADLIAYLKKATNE
Chain of heme environment of cytochrome c (with CL) (P99999 2-105 limits assumed, species assumed): as the sequence (P99999 2-105 limits assumed, species assumed, one chain of several) above

In the case of D-Arg-2′6′-Dmt-Tyr-Lys-Phe-NH2, the “efficacy in animal models” value [1] was “remarkable efficacy”, the lipid peroxidation [2] was “inhibit lipid peroxidation” and the neutralizing reactive species [2] was “can neutralize H2O2, hydroxyl radical, and peroxynitrite”.
In the case of Dmt-D-Arg-Phe-(atn)Dap-NH2 [SS-19], the “increase in quantal yield of peptide fluorescence” value [3] was 2 fold, the “shift in λmax on addition of CL” value ([3]; excitation 320 nm) was “no significant shift in λmax” and the “peptide fluorescence on addition of cytochrome c in the presence of CL” value (cytochrome c-CL complex [4]; 2 μM cytochrome c) was “larger extent of quenching of SS-19 fluorescence”. The “peptide fluorescence on addition of CL” value (cytochrome c-CL complex [4]; FIG. 23B) was “increase in SS-19 fluorescence”, the “displacement of cytochrome c quenching by bovine serum albumin” value (cytochrome c; BSA 500 μg/ml, FIG. 22C) was “not displaced” and the “dependence of interaction on amount of cytochrome c” value (cytochrome c; FIG. 22D) was “linearly dependent on the amount of cytochrome c added”. The “peptide fluorescence on addition of cytochrome c” value (cytochrome c; peptide 10 μM, 2 μM cytochrome c, no CL) was “similarly quenched; also recorded: immediate quenching of the fluorescence signal”, the “quenching of peptide fluorescence by cytochrome c-depleted mitoplasts” value ([5]; mitoplasts 0.4 mg, FIG. 22B) was “significantly reduced” and the “peptide fluorescence on addition of mitochondria” value ([5]; peptide 10 μM, sequential addition of 0.2 mg mitochondria, FIG. 22A) was “quenched”. The “peroxidase activity in cytochrome c/CL complex” value (cytochrome c-CL complex [6]) was “preventing peroxidase activity in cytochrome c/CL complex” and the “disappearance of the negative Cotton effect caused by CL (heme environment of cytochrome c)” value [7] was “Protect the Heme Environment of Cytochrome C from the Acyl Chain of CL”.
